Data taken from the METLIN SMRT retention time set (Domingo-Almenara et al. 2019).

Test: gradient 5% acetonitrile 3 min, to 50% in 2 min, to 85% in 15 min, held 3 min, 100 µL/min
Details: column: Zorbax Extend-C18 2.1 x 50 mm; eluents: water / acetonitrile, 0.1% formic acid
In short: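 In both positive and negative ionization mode, a quadrupole time-of-flight mass spectrometer coupled to HPLC analyzed pure standards run in mixtures of ~100 molecules. The Zorbax Extend-C18 column (2.1 × 50 mm, 1.8 μm) was operated at 100 μL/min with water and acetonitrile, each containing 0.1% formic acid. The dead volume was 40 μL and the dwell volume 900 μL. Retention time came from adduct peaks that were computationally picked and individually inspected by hand.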

Row | Structure (SMILES) | RP-LC retention time
1 | COc1ccc(-c2nnc(Cc3nc(-c4ccc(F)cc4)no3)o2)cc1OC | 907 s
2 | O=C(CSc1nc2ccccc2[nH]1)Nc1nc2ccccc2s1 | 577 s
3 | O=C(Cc1ccccc1Cl)N1CCCC1c1nc(-c2ccccc2)no1 (configuration not stated) | 1020 s
4 | CCCCN1N=C(C(=O)N2CCOCC2)S(=O)(=O)c2ccc(Cl)cc21 | 889 s
5 | COc1ccc(OC)c(NC(=O)NC(C)C(=O)N2CCc3ccccc32)c1 (configuration not stated) | 859 s
6 | CCCCc1cc(=O)oc2cc(C)cc(OC(C)C(=O)N3CCC4(O)CCCCC4C3)c12 (configuration not stated) | 952 s
7 | CCCOc1nc2ccccc2nc1N1CCCC(C(=O)NCc2ccco2)C1 (configuration not stated) | 1100 s
8 | CC(Oc1ccccc1)C(=O)N(C)CC1(C)CCOCC1 (configuration not stated) | 685 s
9 | COc1ccc2c(c1)CCc1sc(NC(=O)c3ccc(C)cc3)nc1-2 | 1150 s
10 | CCN(Cc1cn(C)nc1C)C(=O)C1CN(C(=O)c2ccccc2)CC12CCCCC2 (configuration not stated) | 793 s
11 | O=C(Nc1nc2c(s1)CN(C(=O)Cn1c(=O)oc3ccccc31)CC2)C1CCCO1 (configuration not stated) | 665 s
12 | CN(C)c1cc(-n2cccn2)ncn1 | 666 s
13 | CC(=O)Nc1nsc(N2CCC(C(=O)NCc3ccc4c(c3)OCO4)CC2)n1 | 641 s
14 | Cc1ncc2c(n1)C[C@@H]1CC[C@H]2N1S(=O)(=O)c1ccc2c(c1)C(C)(C)C(=O)N2 | 636 s
15 | COc1cccc2c1OC1(C)CC2C(S(=O)(=O)c2ccc(Cl)cc2)C(=O)N1C (configuration not stated) | 938 s
16 | COc1cc(CCC(=O)N2CCC3(CC2)NCc2ccccc2-n2ccnc23)on1 | 584 s
17 | O=C(c1cnn(-c2ccccc2)n1)N1CCC(c2nnc(-c3ccc(F)cc3)o2)CC1 | 888 s
18 | O=C(Cn1cc(S(=O)(=O)N2CCOCC2)ccc1=O)N1CCCc2ccccc21 | 750 s
19 | CN(CCc1noc(-c2ccc(C(=O)N(C)Cc3ccco3)cc2)n1)C(=O)c1ccccc1 | 817 s
20 | COc1cccc(S(=O)(=O)N2CCC(Cc3nncn3C)CC2)c1 | 641 s

Continued, values first:

Row | RP-LC retention time | Structure (SMILES)
21 | 833 s | CCNS(=O)(=O)c1cc(-c2nnc(-c3ccc(OC)c(OC)c3)o2)ccc1C
22 | 1080 s | Cc1ccc(NC(=O)Nc2nccn(-c3ccc(Br)cc3)c2=O)cc1F
23 | 1020 s | Cc1ccc(NC(=O)Nc2nccn(-c3ccc(F)cc3)c2=O)cc1C
24 | 819 s | CC(=O)Nc1ccc(-c2nc(-c3ccc4c(c3)oc(=O)n4C)no2)cc1
25 | 843 s | O=C(Cc1cccc(Cl)c1)Nc1cc(-c2ccccn2)no1
26 | 619 s | Cc1cc(NC(=O)CCn2cnc3ccccc3c2=O)sn1
27 | 576 s | O=C(NCc1cccnc1)C1CCCN(c2ncnc3c2oc2ccccc23)C1 (configuration not stated)
28 | 686 s | Cc1nnc2c(=O)n(CC(=O)NCc3cc(F)cc(F)c3)c3cccnc3n12
29 | 702 s | Cc1ccc(-c2nc3n(CC(=O)NC4CC4)c4c(c(=O)n3n2)CCC4)cc1
30 | 983 s | CCc1noc(-c2ccnc(-n3cnc(C(=O)NCC(C)C)c3)c2)n1
31 | 548 s | O=C(CSc1ccc(-c2cccnc2)nn1)NCC1CCCO1 (configuration not stated)
32 | 714 s | Cc1sc(NC(=O)c2ccncc2)nc1-c1ccc2c(c1)NC(=O)C(C)O2 (configuration not stated)
33 | 807 s | CCn1cnc2ccc(-c3noc(COc4ccccc4C)n3)cc21
34 | 666 s | O=C(c1cccc(-n2cnnn2)c1)N1CCN(Cc2nc(-c3ccc(F)cc3)cs2)CC1
35 | 1020 s | Cc1ccc(C(O)Cn2ccn3nc(-c4ccc(F)cc4)cc3c2=O)cc1C (configuration not stated)
36 | 613 s | Cc1cccc2sc(NC(=O)CNC(=O)c3ccc(=O)[nH]c3)nc12
37 | 898 s | CC(C)CN1C(=O)CCc2cc(NS(=O)(=O)c3cccc(F)c3)ccc21
